Tests used:
Interleukin (IL)-6 = test: Inflammatory cytokine IL-6 in plasma of DSS ulcerative colitis model mice (ELISA); assay type: in vivo; details: for IL-6 concentration in blood: 3% DSS mice, plasma day 15, compared to DSS+saline
From the text: Furthermore, after the blood collection was completed, the mice in each group were euthanized by exsanguination under isoflurane anesthesia.
(§1) Interleukin (IL)-6 was quantified as the inflammatory cytokine. IL-6 was quantified by ELISA method using a commercially available kit.
Furthermore, after blood collection was completed, the mice in each group were euthanized by exsanguination under isoflurane anesthesia.
as §1

[1] = tested on: DSS-treated mice, the ulcerative colitis animal model; test: Disease condition score in DSS ulcerative colitis model mice; details: for disease condition score: 3% DSS mice, scored day 7, 10, 12, 14
[2] = tested on: DSS-treated mice, the ulcerative colitis animal model; test: Colonic inflammation score in DSS ulcerative colitis model mice; assay type: in vivo; details: 3% DSS mice, 10 mg/kg i.p. once a day for 14 days, day 15
Protocol: The mice from each group that had been euthanized were resected from cecum to anus, and a length from directly below the cecum to the anus was measured. Subsequently, the lumen of the colon was washed with saline, and after washing, an incision was made in the longitudinal direction, and a colonic inflammation score was determined according to the following evaluation criteria.
The mice from each group that had been euthanized were resected from the cecum to the anus, and the length from directly below the cecum to the anus was measured.

[3] = tested on: social defeat stress mice; test: Behavioral rating (tail suspension, forced swimming, sucrose preference tests) in social defeat stress mice; details: Experimental Example 11, 10 mg/kg i.p. once on D12, tests D12-D14, compared to saline
sRANKL-administered mice = test: Femur bone density by X-ray CT in sRANKL-administered mice (osteoporosis model); details: Experimental Example 12, sRANKL (1 mg/kg) mice, 10 mg/kg i.p. 30 minutes before sRANKL and 24 and 48 hours after
ovariectomized mice = test: Femur bone density by X-ray CT in ovariectomized mice (osteoporosis model); assay type: in vivo; details: Experimental Example 13, 10 mg/kg i.p. Monday and Thursday, 6 weeks after surgery, compared to saline
From the text: The effect of R-ketamine was examined using ovariectomized mice as a model animal for osteoporosis.

[4] = tested on: social defeat stress mice; test: Femur bone density by X-ray CT in social defeat stress mice; assay type: in vivo; details: Experimental Example 11, 10 mg/kg i.p. once, D15, compared to saline
RANKL = test: Plasma RANKL and OPG/RANKL ratio in social defeat stress mice (ELISA); details: for OPG/RANKL ratio / RANKL concentration in plasma: compared to saline; for restoring abnormally high expression of RANKL to a normal value: summary of Experimental Example 6, 10 mg/kg i.p. once; for therapeutic effect (restoring abnormally high expression of RANKL to a normal value): summary of Experimental Example 11, 10 mg/kg i.p. once
NMDA receptors = details: S-ketamine compared to R-ketamine; cited from earlier work
[5] = Experimental Example 4, 10 mg/kg i.p. once a day for 14 days
[6] = Experimental Example 6, 10 mg/kg i.p. once, four days after
[7] = Experimental Example 6, 10 mg/kg i.p. once, plasma four days after
[8] = Experimental Example 11, 10 mg/kg i.p. once, plasma three days after (D15)
[9] = Experimental Example 2, 10 mg/kg i.p. once a day for 14 days
[10] = summary of Experimental Examples 1 to 4, intraperitoneal 10 mg/kg

Row | Structure (SMILES) | IL-6 concentration in blood (Interleukin (IL)-6; [5]) | antidepressant effect (tail suspension test, forced swimming test, sucrose preference test) [3] | cortical bone density [4] | total bone density [4] | OPG/RANKL ratio (RANKL; [6]) | RANKL concentration in plasma (RANKL; [7]) | RANKL concentration in plasma (RANKL; [8]) | restoring abnormally high expression of RANKL to a normal value (RANKL) | therapeutic effect (restoring abnormally high expression of RANKL to a normal value) (RANKL) | disease condition score [1, 9] | therapeutic effect in ulcerative colitis animal model [1, 10] | further results
1 | Nc1ccc(O)c(C(=O)O)c1 [5-ASA, 5-aminosalicylic acid, reference compound] |  |  |  |  |  |  |  |  |  |  |  | IL-6 concentration in blood (Interleukin (IL)-6; Experimental Example 10, 50 mg/kg i.p. once a day for 14 days): a significant decrease of IL-6 concentration in blood was not observed; disease condition score ([1]; Experimental Example 8, 50 mg/kg i.p. once a day for 14 days, compared to DSS and saline): improvement tendency of the disease condition score was observed in the “DSS+5-ASA” group, but it was not significant; therapeutic effect in ulcerative colitis animal model ([1]; summary of Experimental Examples 7 to 10, intraperitoneal 50 mg/kg): extremely weak therapeutic effect
2 | CN[C@@]1(c2ccccc2Cl)CCCCC1=O [R-ketamine] | significant decrease of IL-6 concentration in blood | significantly higher antidepressant effect | significantly improved | significantly improved | significantly increased | significantly decreased | significantly decreased | able to restore an abnormally high expression of RANKL to a normal value | able to restore an abnormally high expression of RANKL to a normal value | significant improvement of the disease condition score | exhibited a therapeutic effect | effect of reducing IL-6 in blood, R-ketamine compared to S-ketamine (Interleukin (IL)-6; [5]): higher than when administering S-ketamine; IL-6 concentration in blood (Interleukin (IL)-6; Experimental Example 10, 10 mg/kg i.p. once a day for 14 days): a significant decrease of IL-6 concentration in blood was observed; colonic inflammation score ([2]; Experimental Example 3, compared to DSS+S-ketamine group): significant improvement of the colonic inflammation score; colonic inflammation score ([2]; Experimental Example 9, compared to DSS+5-ASA (50 mg/kg) group): significant improvement of the colonic inflammation score; cancellous bone density (sRANKL-administered mice): significantly increased; cortical bone density (sRANKL-administered mice; compared to saline): significantly improved; total bone density (sRANKL-administered mice; compared to saline): significantly improved; cancellous bone density (ovariectomized mice): tended to increase along with R-ketamine administration, but it was not statistically significant; cortical bone density (ovariectomized mice): significantly improved; plane bone density (ovariectomized mice): tended to increase along with R-ketamine administration, but it was not statistically significant; total bone density (ovariectomized mice): significantly improved; OPG/RANKL ratio (RANKL; Experimental Example 11, 10 mg/kg i.p. once, three days after (D15)): significantly increased; disease condition score ([1]; Experimental Example 8, 10 mg/kg i.p. once a day for 14 days, compared to DSS and saline): significant improvement of the disease condition score; therapeutic effect in ulcerative colitis animal model ([1]; summary of Experimental Examples 7 to 10, intraperitoneal 10 mg/kg): significant therapeutic effect
3 | N[C@@]1(c2ccccc2Cl)CCC[C@@H](O)C1=O [2R,6R-HNK, 2R,6R-hydroxynorketamine] |  | no antidepressant effect | no significant change | no significant change |  |  | a significant change to RANKL concentration in plasma was not observed |  | no therapeutic effect was observed |  |  | OPG/RANKL ratio (RANKL; Experimental Example 11, 10 mg/kg i.p. once, three days after (D15), 10 mg/kg): a significant change to the OPG/RANKL ratio was not observed
4 | CN[C@]1(c2ccccc2Cl)CCCCC1=O [S-ketamine] | significant decrease of IL-6 concentration in blood |  |  |  | a significant change to the OPG/RANKL ratio was not observed | a significant change to RANKL concentration in plasma was not observed |  | such an effect was not observed |  | improvement tendency of the disease condition score was observed in the “DSS+S-ketamine” group, but it was not significant | exhibited a tendency for a therapeutic effect in the ulcerative colitis animal model, but the effect was weaker than that of R-ketamine | affinity for NMDA receptors (NMDA receptors): stronger affinity for NMDA receptors than R-ketamine

Reference: US11980595B2, “Preventive or therapeutic agent and pharmaceutical composition for inflammatory diseases or bone diseases” (National University Corporation Chiba University, priority 2018, dated 2024)
